Assay [1] concerns the target T1, Retinoic acid receptor RXR-alpha (Homo sapiens) (UniProt P19793).
T1 sequence (whole entry): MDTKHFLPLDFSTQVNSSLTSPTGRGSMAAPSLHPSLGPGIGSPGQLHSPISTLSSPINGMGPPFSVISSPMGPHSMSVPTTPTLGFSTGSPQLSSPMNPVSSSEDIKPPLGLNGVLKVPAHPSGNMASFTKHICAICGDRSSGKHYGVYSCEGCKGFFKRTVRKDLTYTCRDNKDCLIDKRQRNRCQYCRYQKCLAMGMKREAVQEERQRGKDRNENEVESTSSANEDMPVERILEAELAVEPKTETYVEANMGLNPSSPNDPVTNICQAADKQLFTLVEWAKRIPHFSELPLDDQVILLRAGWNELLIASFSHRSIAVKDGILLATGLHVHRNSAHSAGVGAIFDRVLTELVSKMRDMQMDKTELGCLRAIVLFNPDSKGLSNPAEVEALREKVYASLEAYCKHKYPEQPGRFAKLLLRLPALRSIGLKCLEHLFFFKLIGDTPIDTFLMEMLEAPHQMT
Nature of the assay: Displacement of 6-(Ethyl-{5-isobutoxy-4-isopropyl-2-[(10-oxo-2,3,5,6-tetrahydro-1H,4H,10H-11-oxa-3a-aza-benzo[de]anthracene-9-carbonyl)-amino]-phenyl}-amino)-nicotinic acid from human RXRalpha-LBD by fluorescence binding assay.

Assay [2] deals with T2, Retinoic acid receptor RXR-alpha (Homo sapiens, UniProt P19793).
T2 sequence (P19793 whole entry): T1 sequence (whole entry)
The assay is described as follows: Displacement of [3H]9cis-RA from human RXRalpha-LBD by competitive binding assay. In general terms: Displacement assays read how much labelled ligand stays bound in the presence of the test substance.

Assay [3] has as its target T2, Retinoic acid receptor RXR-alpha. The assay is described as follows: Antagonist activity at human RXRalpha expressed in COS-7 cells assessed as suppression of NEt-TMN-induced receptor transactivation by luciferase reporter gene assay. The assay is classed as cell-based. The settings on record: read-out: pA2 (converted). On the technique in general: In a reporter assay the amount or activity of a reporter protein is the signal.

Active and inactive are the calls of the source. The calls are words filed in the database; no cut-off is given here.

In the case of `CC/C=C\C/C=C\C/C=C\C/C=C\C/C=C\CCCC(=O)O`, the result in assay [1] was Active.

With `CCCCC/C=C\C/C=C\C/C=C\C/C=C\CCCC(=O)O`, the outcome in assay [1] was Active.

For `CCN(c1ccc(C(=O)O)cn1)c1cc(OCC(C)C)c(C(C)C)cc1NC(=O)c1ccccc1`, affinity in assay [2] was put at a Ki of 0.425 µM. For the same compound, in assay [3], the Kb was 0.0479 µM.

As for `CC/C=C\C/C=C\C/C=C\C/C=C\C/C=C\C/C=C\CCC(=O)O`, the outcome in assay [1] was Active.

With `C=CCc1ccc(O)c(-c2ccc(O)c(CC=C)c2)c1`, the result in assay [1] was Active.

As usually defined, the Ki is the equilibrium dissociation constant of an inhibitor or competing ligand from its target. Higher therefore signals a looser hold on the target.

The values above are taken from ChEMBL document CHEMBL4765485, “Convenient Retinoid X Receptor Binding Assay Based on Fluorescence Change of the Antagonist NEt-C343” (J Med Chem, 2021).
